Patent US11415493B2, “Detection of cells in a liquid sample” (DELTA INSTRUMENTS B.V., priority 2016, dated 2022)
“Also recorded” adds a separate entry of the source.

How the values were obtained:
E. coli in raw milk = experiment: GelGreen raw milk treatment staining protocol, flow cytometry; format: cell-based, Escherichia coli; conditions: raw milk diluted in Tris-buffered saline pH 8.5, approximately 50 to 60° C.
Description: To show how the FL1, FL2 signals look like in un-spiked raw milk, low bacterial count raw milk was analyzed. The locally obtained raw milk (generally from a farm) has a very low bacteria count ranging from 1000 to 50,000 CFU per mL. The staining composition comprising GelGreen™ as the nucleic acid dye was prepared in the same way as in Example 1, except that the protease Savinase® 16L (from Novozymes) was added in an amount of 1.92×10^3 NPU/ml, where NPU is “Novo Protease Unit which is the same as Anson unit (AU). […] The sample with the staining composition was incubated at approximately 50° C. for approximately 4 to 5 min; the sample was again sonicated for approximately 5 seconds and finally the sample was analyzed on the flow cytometer and the fluorescent signals from the bacteria were detected and a count per unit volume was determined.
A small volume of raw milk was processed and analyzed following this GelGreen™ raw milk treatment staining method protocol (FIG. 38). To show the FL1 and FL2 signals for spiked raw milk, a known number of E. coli were placed into a known volume of the same raw milk and kept at 4° C. until treated, stained and analyzed on the flow cytometer. The raw milk with E. coli was processed and analyzed using the same GelGreen™ raw milk treatment staining method protocol. […]

E. coli = experiment: Validation of flow cytometer bacterial counts versus Petrifilm CFU counts, E. coli cultures; format: cell-based, Escherichia coli; conditions: Tris-buffered saline pH 8.5, 50° C.
Description: First, an experiment was performed to confirm that bacterial counts obtained on the flow cytometer using GelGreen™ did correlate with traditional plate counts. For this, the Petrifilm method was selected (Standard Methods for Examination of Dairy Products 17th Edition 2004. Edited by H. M. Wehr and J. R. Frank. American Public Health Association, 800 I Street, NW, Washington D.C. 200001. Chapter 6.040), rather than a poured agar plate method, because of ease of use. Escherichia coil (E. coli) cultures were grown at 36° C. in Trypticase Soy Broth (TSB) in a culture tube. A staining composition was prepared as follows: The nucleic acid dye GelGreen™ (from Biotium) was diluted to 1× from the 10,000× commercially available stock, into Tris-buffered saline (100 mM Trizma base, 100 mM Trizma HCl, 150 mM NaCl, pH 8.5), which was preheated to 50° C. […] The stained E. coli was analyzed on the flow cytometer and the FL1 (Bandpass 531 nm (519-551)) and FL2 (Long pass >550 nm) fluorescence channels were used to identify the stained bacteria (FIGS. 1A and 1C). […] Each dilution of E. coli was stained with the GelGreen™ reagent, analyzed on the flow cytometer and counts for each dilution were obtained. […] The Petrifilms were placed in a 30° C. incubator, removed after 48 hrs and the colonies on each Petrifilm were counted using an automated colony counter. […]

bacteria in raw milk = experiment: IBC in raw milk samples at different temperature settings, flow cytometer; format: cell-based
Description: The nucleic acid dyes, Evagreen®, SYTOX® Green and Propidium iodide where tested against GelGreen™ (the reference method). […] Nucleic acid dyes Evagreen®, SYTOX® Green and propidium iodide were tested using the same staining and incubation conditions as for the reference method only differing in the type of dye comprised in the staining composition. Evagreen® was used at a concentration of 1.25 μM in the staining composition. SYTOX® Green and Propidium iodide were used at a concentration of 5 μM in the staining composition. Three different types of milk were used: Locally obtained raw bulk tank milk from a farm and dairy plant where collected at a local farmer. This milk is referred to as fresh raw milk and is not older than 24 hours. 24 hour and 48 hour old milk were obtained from a dairy plant. […] For this purpose E. coli was grown overnight (approx. 15 h) in TSB at 32° C. The dead bacterial where obtained by heating the grown E. coli at 110° C. for 10 minutes. […] All the milk samples are kept at 4° C. until analyzed. […] Finally, the samples were analyzed on the flow cytometer and the fluorescent signals from the bacteria were detected and a count per unit volume was determined. […]
From example 5 it is already clear that temperatures lower than the optimal settings result in decreased DNA staining and so bacteria counting performance. […] Milk samples were kept at 4° C. until analyzed. […]

With CN(C)c1ccc2cc3ccc(N(C)C)cc3[n+](CCCCCC(=O)NCCCOCCOCCOCCCNC(=O)CCCCC[n+]3c4cc(N(C)C)ccc4cc4ccc(N(C)C)cc43)c2c1.[I-].[I-] [GelGreen™] the “staining of bacterial cells in raw milk” value (E. coli in raw milk) was “clear population of E. coli was identified; also recorded: bacterial cells being stained”, the “relationship of Log flow cytometer bacterial counts versus Log CFU counts from Petrifilm” value (E. coli) was “clear linear relationship” and the “IBC compared to the 68° C. based reference method” value (bacteria in raw milk; 40° C., fresh spiked milk) was “way too low”. For the same compound, the “IBC compared to the 68° C. based reference method” value (bacteria in raw milk; 90° C., all the samples) was “slightly higher”.
